Data taken from paper PMC9775191, “A Subset Screen of the Compounds Australia Scaffold Library Identifies 7-Acylaminodibenzoxazepinones as Potent and Selective Hits for Anti-Giardia Drug Discovery” (Biomedicines, 2022).

System: G. duodenalis BRIS/91/HEPU/1279
Test: Primary Giardia screen at 10 µM (live-cell imaging, automated counting)
Format: cell-based, Giardia duodenalis
Conditions: for % Inhibition n=1 48h / % Inhibition n=1 24h: first singlicate assay; for % Inhibition n=2 24h / % Inhibition n=2 48h: re-assessment
In short: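 One concentration, 10 μM, is screened per compound in singlicate under microaerophilic gas (3% O2, 5% CO2, N2). Inhibition comes from automated image-based counts at 24 and 48 h, relative to 0.2% DMSO controls.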

Structure (SMILES)	% Inhibition n=1 48h [%]	other results
CC(C)(C)Nc1c(-c2ccc(F)cc2)nc2sc(N3CCN(Cc4ccccn4)CC3)nn12 [SN00795823]	32.2	–
O=C(c1cnn(-c2ccccc2)c1C1CC1)N1CCc2ccccc21 [SN00775113]	0.5	–
Cc1coc(C)c1C(=O)CC1(O)C(=O)Nc2ccccc21 (centres unmarked) [SN00783840]	0.0	–
CN1CCN(CC2CCN(C(=O)Cc3cccc4ccccc34)CC2)CC1 [SN00783181]	17.7	–
O=C(c1ccco1)N1CCC(NS(=O)(=O)c2ccc(Cl)cc2)CC1 [SN00795232]	0.0	–
CC(C)(C)OC(=O)N1CCN(C(=O)C2CCCNC2)CC1 (centres unmarked) [SN00769730]	15.1	–
Cc1ccc(-c2noc(-c3cccn4c(=O)n(CC(=O)Nc5cc(C)ccc5C)nc34)n2)cc1 [SN00798102]	23.0	–
COc1ccc(-c2nc(S(=O)(=O)CC(=O)Nc3ccc(F)cc3)c(-c3ccc(OC)cc3)[nH]2)cc1 [SN00785276]	12.5	–
Cc1cc(C)cc(C(=O)NCc2ccc3c(c2)nnn3C)c1 [SN00798663]	0.0	–
O=C(N[C@H]1C[C@@H]2C[C@H]1N(C(=O)Nc1ccc3c(c1)CCC3)C2)c1ccccc1 [SN00800945]	6.6	–
CCOC(=O)c1cccc(Nc2ncccc2S(N)(=O)=O)c1 [SN00799296]	70.8	Average % Inhibition 24h: 14.5%; % Inhibition n=1 24h: 29.1%; % Inhibition n=2 24h: 0.0%; Average % Inhibition 48h: 35.4%; % Inhibition n=2 48h: 0.0%
COc1cccc(CCC(=O)N2CCCC(c3nnc4n3CCCCC4)C2)c1 (centres unmarked) [SN00771943]	2.6	–
CCCNS(=O)(=O)c1cc(C(=O)N2CCCC2)cs1 [SN00789651]	0.0	–
CCc1ccc(NC(=O)N2CCc3c(c(-c4nc(C)no4)nn3C)C2)cc1 [SN00796748]	19.4	–
COc1ccccc1-c1nc(C2CCN(C(=O)COc3ccccc3)CC2)no1 [SN00796215]	15.9	–
O=C(NCC1(c2ccccc2)CCOCC1)c1ccc(Br)cc1 [SN00783501]	61.1	Average % Inhibition 24h: 8.8%; % Inhibition n=1 24h: 16.8%; % Inhibition n=2 24h: 0.9%; Average % Inhibition 48h: 37.7%; % Inhibition n=2 48h: 14.4%

Structure (SMILES)	% Inhibition n=1 48h [%]	other results
Cn1nnc2cc(CNC(=O)c3ccc(F)cc3)ccc21 [SN00798670]	3.3	–
O=C(NC1CC1)c1cnn2c(-c3ccccn3)ccnc12 [SN00795482]	0.0	–
CCn1nnc2c(C(=O)NCCC3=CCCCC3)c(C)sc2c1=O [SN00799184]	2.6	–
CCc1ccc(C(=O)N2CCC(Cc3nc(-c4ccc(OC)cc4)no3)CC2)cc1 [SN00801692]	0.0	–
CCn1c(Cn2c(-c3cccnc3)noc2=O)nc2c(F)cccc21 [SN00781429]	0.0	–
O=C(Nc1ccnn1Cc1ccccn1)c1cccnc1Oc1ccccc1 [SN00775947]	2.6	–
CCn1ccnc1CN1CCCN(C(=O)c2cnc(C)cn2)CC1 [SN00771476]	10.9	–
Cc1[nH]c(=O)sc1S(=O)(=O)N1CCN(c2ccccc2[N+](=O)[O-])CC1 [SN00779481]	0.0	–
Cc1cccc(NC(=O)N2CCN(c3nc(C)cc(N4CCN(C)CC4)n3)CC2)c1 [SN00793530]	17.4	–
CCC(C)NC(=O)C1CCN(c2cnc(N3CCSCC3)nc2)CC1 (centres unmarked) [SN00798903]	12.6	–
O=C(Cc1csc2nc(-c3ccccc3)cn12)NCCc1cccs1 [SN00796222]	0.0	–
COCC(=O)N1CCc2c(c(COCc3ccc(C)cc3)nn2C)C1 [SN00796424]	0.0	–
Cc1ccc(-n2nc3c(c2NC(=O)COc2ccccc2)CS(=O)(=O)C3)c(C)c1 [SN00802785]	16.6	–
CCN1c2cc(C)ccc2-n2cccc2C12CCN(S(=O)(=O)c1ccc(C)cc1)CC2 [SN00785371]	10.4	–
COc1ccc(-c2cc(N3CCN(C(=O)Cc4ccc(F)cc4)CC3)[nH]n2)cc1 [SN00800353]	0.0	–
